Data taken from patent US20180153830A1, “SELECTIVE INHIBITORS OF UNDIFFERENTIATED CELLS” (Yissum Research Development Company of the Hebrew …, priority 2012, published 2018).

What was measured:
[1] = hPSC viability after SCD1 inhibitors with or without oleic acid; type: cell-based, human; conditions: human, human pluripotent stem cells (hPSCs), 75 nM, read-out: decrease in viability of hPSCs
Procedure: (§1) In order to determine whether hPSC viability indeed depends on functional SCD1 activity, hPSCs were exposed to 75 nM of the specific SCD1 inhibitors A939572 and CAY-10566 for 48 hours. Some samples were supplemented with 100 μM oleic acid in order to evaluate the effect of exogenous supplementation of oleic acid (a product of SCD1 activity) on cell death.

hPSCs = assay: as above; type: cell-based, human; conditions: 75 nM inhibitor, 100 μM oleic acid, 48 hours
Procedure: as §1

[2] = tested on: pluripotent cells in mixed cell population (differentiated and undifferentiated CSES2-SO2/3 cells); assay: FACS analysis of TRA-1-60 in mixed cell populations; type: cell-based, human; conditions: 48 hours, 6-well plates
Procedure: For quantification of remaining undifferentiated cells after treatment, cells were treated with 20 μM PluriSIn #1 (isonicotinic acid N′-phenylhydrazide) for 48 hours or 72 hours, dissociated using TrypLE™ Select (Invitrogen), and washed with PBS supplemented with 10% FBS and 0.05% sodium azide. Dissociated cells were suspended to a final concentration of 10^6 cells/ml. Cells were incubated on ice with TRA1-60-PE antibody (1:40, BD Biosciences), washed and analyzed using LSR II FACS (BD Biosciences) with FCS Express software (De Novo Software, Los Angeles, Calif.).
(§2) Mixed cell populations were cultured in 6-well plates and exposed to PluriSIn #1 for 48 hours. The cells were then analyzed by FACS analysis, using staining for the pluripotent marker TRA-1-60, and by fluorescence microscopy imaging of OCT4, as described in the Materials and Methods section.

[3] = tested on: OCT4-expressing CSES2-SO2/3 cells; assay: Fluorescence microscopy imaging of OCT4 in mixed cell populations; type: cell-based, human; conditions: 48 hours, mixed cell population
Procedure: High content imaging of CSES2-SO2/3 fluorescent cells (mCherry+ or EGFP+) was performed in black clear-bottom 384-well assay plates (Falcon BD), using the Opera high-content screen imaging platform (PerkinElmer). Otherwise, light and fluorescence imaging of all cells was performed in 24-well, 6-well or 10 cm CELLSTAR® plates (Greiner Bio-One), using an Olympus CellR imaging station. Light imaging of developing mouse embryos was performed in 35 mm culture dishes (Falcon BD), using an Olympus IX70 microscope.
as §2

SCD1 = molecular target: T1, SCD1 (Homo sapiens, UniProt O00767); assay: SCD1 activity measurement ([1-14C] stearic acid pulse-chase labeling); type: cell-based; design: PluriSIn #1 decreased SCD1 activity by approximately 65% decrease in ES cells; endogenous in cells; host or cells: human embryonic stem cells (H9, printed '1-19'); conditions: 20 μM, 12 hours
T1 sequence (O00767 1-359): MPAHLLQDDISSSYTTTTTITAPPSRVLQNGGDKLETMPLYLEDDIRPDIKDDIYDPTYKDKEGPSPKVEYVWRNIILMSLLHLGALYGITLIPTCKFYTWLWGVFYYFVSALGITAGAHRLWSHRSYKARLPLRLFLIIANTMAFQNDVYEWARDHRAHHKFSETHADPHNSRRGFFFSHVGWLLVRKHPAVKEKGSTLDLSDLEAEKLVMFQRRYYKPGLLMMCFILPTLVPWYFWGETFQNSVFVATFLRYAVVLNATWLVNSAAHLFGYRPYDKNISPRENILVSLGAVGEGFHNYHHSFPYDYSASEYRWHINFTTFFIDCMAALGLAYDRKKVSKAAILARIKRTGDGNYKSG
Procedure: Cells were plated in 6-well plates at a density of 50,000 to 100,000 cells per well. 24 hours later, 20 μM of PluriSIn #1 (isonicotinic acid N′-phenylhydrazide) or 0.2% DMSO (control) were added to the cells. After 12 hours of incubation at 37° C., under 5% CO2, the old medium was removed, cells were washed with PBS, and new medium containing 2.3 μM of 0.75 μCi of [1-^14C] stearic acid was added. The cells were then incubated for up to 4 hours at 37° C., under 5% CO2.
After the incubation period, the medium was discarded and the cells were washed 3 times with 2 ml of PBS. 2 ml of an n-hexane:isopropanol mixture (3:2 v:v) were added, and the cells were then incubated for 30 minutes at a temperature of 37° C., under 5% CO2. […] The free fatty acids were detected by ultraviolet illumination after spraying the TLC with a 2′,7′-dichlorofluorescein solution. The spots corresponding to stearic and oleic acid were scraped and the radioactivity counted in a Packard Tri-Carb® 1600TR scintillating counter. SCD1 desaturase activity was calculated from the percent conversion of substrate to product and the conversion to picomoles per minute per 10^6 cells. […]
In order to directly examine whether PluriSin #1 inhibits SCD activity, and whether this inhibition is restricted to pluripotent cells, SCD1 activity was measured by a pulse-chase labeling assay, as described in the Materials and Methods section. […]

[4] = tested on: non-pluripotent cell types (BJ-fibroblasts, HeLa, HepG2 and Kelly cells); assay: Methylene blue viability of non-pluripotent cells in embryonic stem cell medium; type: cell-based, human; conditions: 20 μM, 72 hours
Procedure: For the high-throughput screens, relative cell number was determined using a CellTiter-Glo® Luminescent Cell Viability Assay as described hereinabove. Otherwise, relative cell numbers were determined by fixating the cells with 0.5% glutardialdehyde and staining with methylene blue dissolved in 0.1 M boric acid (pH 8.5). Color extraction was performed using 0.1 M hydrochloric acid, and the staining (which is proportional to cell number) was quantified by measuring absorbance at a wavelength of 650 nm.
In order to ascertain that the selectivity of PluriSin cytotoxicity is cell type-dependent rather than cell medium-dependent, four non-pluripotent cell types (BJ-fibroblasts, HeLa, HepG2 and Kelly cells) were cultured in human embryonic stem cell medium and exposed to PluriSIn #1 for 72 hours. Cell viability was then determined by a methylene blue assay, as described hereinabove.

| SMILES | cytotoxicity at 48 h, 75 nM [1] [%] | rescue from SCD1 inhibitor-induced cell death by oleic acid (hPSCs) | pluripotent cells eliminated from culture (TRA-1-60 FACS) [2] | elimination of OCT4-expressing cells [3] | decrease in SCD1 activity in ES cells (SCD1) | viability of non-pluripotent cells cultured in embryonic stem cell medium [4] |
| --- | --- | --- | --- | --- | --- | --- |
| CNC(=O)c1cccc(NC(=O)N2CCC(Oc3ccccc3Cl)CC2)c1 [A939572, 4-(2-chlorophenoxy)-N-(3-(methylcarbamoyl)-phenyl)piperidine-1-carboxamide, reference compound] | > 80 | completely rescued | – | – | – | – |
| O=C(NNc1ccccc1)c1ccncc1 [PluriSIn #1, isonicotinic acid N′-phenylhydrazide] | – | – | over 99% | eliminated almost all OCT4-expressing cells | approximately 65% | no effect |
